Here are results for nine compounds from ChEMBL document CHEMBL4699483, “Synthesis of functionalized derivatives of the gamma-secretase modulator BMS-932481 and identification of its major metabolite” (Bioorg Med Chem Lett, 2020).

Usually IC50 stands for the point on the concentration scale where inhibition reaches its midpoint.

The target in one data set is Gamma-secretase. Description: Modulation of gamma secretase (unknown origin) assessed as inhibition of amyloid beta (1 to 42 residues) production. Format: protein-complex assay, Homo sapiens.
The nature of data set [1]: Metabolic stability in human liver microsomes assessed as parent compound remaining incubated for 30 mins. The class given is ADME, Microsome. To be noted: read-out: Stabilty. In general terms: Liver microsomes are vesicles of endoplasmic reticulum, rich in cytochrome P450 enzymes.
The nature of data set [2]: Metabolic stability in rat liver microsomes assessed as parent compound remaining incubated for 30 mins. Format: ADME, Microsome. To be noted: read-out: Stabilty.
Data set [3] is described as follows: Drug metabolism assessed as (5R,7S)-7-(4-fluorophenyl)-2-(3-methoxy-4-(3-methyl-1H-1,2,4-triazol-1-yl)phenylamino)-4-(methylamino)-6,7-dihydro-5H-cyclopenta[d]pyrimidin-5-ol metabolite formation by LC/MS analysis.
Data set [4] can be described thus: Drug metabolism assessed as (S)-7-(4-fluorophenyl)-2-(3-methoxy-4-(3-methyl-1H-1,2,4-triazol-1-yl)phenylamino)-4-(methylamino)-6,7-dihydro-5H-cyclopenta[d]pyrimidin-5-one metabolite formation by LC/MS analysis.
Data set [5] can be described thus: Glutathione reactivity in liver microsomes assessed as GSH-adduct formation. The class given is ADME.
Data set [6] is described as follows: Drug metabolism assessed as nitrile adduct formation in presence of KCN.
Data set [7] is described as follows: Drug metabolism assessed as iminoquinone A formation.
The target of another data set is Cytochrome P450 3A4 (Homo sapiens, UniProt P08684). Description: Time-dependent inhibition of CYP3A4 in human liver microsomes assessed as inhibition constant by Kitz-Wilson plot analysis. The class given is ADME.
Sequence of Cytochrome P450 3A4 (P08684 whole entry): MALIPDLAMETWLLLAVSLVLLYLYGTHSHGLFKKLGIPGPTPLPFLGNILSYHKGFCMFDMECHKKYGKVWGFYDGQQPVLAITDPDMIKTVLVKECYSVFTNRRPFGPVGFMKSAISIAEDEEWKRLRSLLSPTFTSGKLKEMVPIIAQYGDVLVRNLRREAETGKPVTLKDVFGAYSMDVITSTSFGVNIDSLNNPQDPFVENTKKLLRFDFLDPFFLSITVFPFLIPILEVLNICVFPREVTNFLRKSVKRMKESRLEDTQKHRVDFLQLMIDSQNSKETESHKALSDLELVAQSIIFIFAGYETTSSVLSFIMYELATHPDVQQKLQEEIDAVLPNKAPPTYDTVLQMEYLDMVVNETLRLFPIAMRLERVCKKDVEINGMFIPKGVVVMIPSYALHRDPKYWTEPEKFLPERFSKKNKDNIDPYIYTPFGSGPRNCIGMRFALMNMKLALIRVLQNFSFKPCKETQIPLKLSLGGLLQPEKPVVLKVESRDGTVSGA

Consider `CNc1nc(Nc2ccc(-n3cnc(C)n3)c(OC)c2)nc2c1CC[C@@]2(O)c1ccc(F)cc1`, for which, on Gamma-secretase, the IC50 amounted to 2300 nM.

As for `CNc1nc(Nc2ccc(-n3cnc(C)n3)c(OC)c2)nc2c1/C(=N/O)C[C@H]2c1ccc(F)cc1`, the IC50 at Gamma-secretase amounted to 5 nM.

Take `CNc1nc(Nc2ccc(-n3cnc(C)n3)c(OC)c2)nc2c1C(C)(O)CC2c1ccc(F)cc1` (racemic): the IC50 at Gamma-secretase was 60 nM.

On to `CNc1nc(Nc2ccc(-n3cnc(C)n3)c(OC)c2)nc2c1[C@H](O)C[C@H]2c1ccc(F)cc1`, for which, on Gamma-secretase, the IC50 is 17 nM.

For `CNc1nc(Nc2ccc(-n3cnc(C)n3)c(OC)c2)nc2c1CC[C@H]2c1ccc(F)cc1`, the remaining at 0.5 h in [1] was determined as 94%; in data set [2], 89%. The Drug metabolism result is on record as “Metabolite detected” in data set [3]; “Metabolite detected” in data set [4]; “Not Active” in [5]; “Metabolite detected” in data set [6]; “Metabolite detected” in [7].

Regarding `CNc1nc(Nc2ccc(-n3cnc(C)n3)c(OC)c2)nc2c1C(=O)C[C@H]2c1ccc(F)cc1`, at Gamma-secretase, the IC50 amounted to 14 nM.

As to `CNc1nc(Nc2ccc(-n3cnc(C)n3)c(OC)c2)nc2c1/C(=N/O)CC2c1ccc(F)cc1` (racemic), the IC50 on Gamma-secretase is 10 nM.

On to `CNc1nc(Nc2ccc(-n3cnc(C)n3)c(OC)c2)nc2c1CC[C@@H]2c1ccc(F)cc1`, for which the figures for the remaining at 0.5 h in data set [1] and in [2] were 94% and 89%, respectively. Moreover, the Drug metabolism result in data set [3] is “Metabolite detected”; in data set [4], “Metabolite detected”; in [5] it was “Not Active”; in [6] it was “Metabolite detected”; in [7], “Metabolite detected”. Moreover, the Ki at Cytochrome P450 3A4 was found to be 82500 nM.

For the compound `CNc1nc(Nc2ccc(-n3cnc(C)n3)c(OC)c2)nc2c1CC[C@]2(O)c1ccc(F)cc1`, the IC50 at Gamma-secretase is 96 nM.
